Marks after values point to notes of the source that are not given here.
Key:
[1] = Measurement of LogP values by HPLC on reversed phase columns (EEC directive 79/831 Annex V.A8); type: physicochemical; details: for chromatographic logP: method [a]: LC-UV, acidic range
Description: Calibration was done with straight-chain alkan2-ones (with 3 to 16 carbon atoms) with known LogP values (measurement of LogP values using retention times with linear interpolation between successive alkanones). Lambda-max-values were determined using UV-spectra from 200 nm to 400 nm and the peak values of the chromatographic signals

[2] = system: Botrytis cinerea; test: In vivo preventive test on Botrytis cinerea (grey mould); details: 500 ppm of active ingredient, preventive spray on gherkin or cabbage, evaluated 4 to 5 days after inoculation, read-out: efficacy
Description: (§1) The active ingredients were made soluble and homogenized in a mixture of Dimethyl sulfoxide/Acetone//Tween® 80 and then diluted in water to the desired concentration. The young plants of gherkin or cabbage were treated by spraying the active ingredient prepared as described above. Control plants were treated only with an aqueous solution of Acetone/Dimethyl sulfoxide/Tween® 80. After 24 hours, the plants were contaminated by spraying the leaves with an aqueous suspension of Botrytis cinerea spores.

[3] = system: Pyrenophora teres; test: In vivo preventive test on Pyrenophora teres (net blotch on barley); details: 240 h, 500 ppm of active ingredient, preventive spray on barley, evaluated 10 days after inoculation, read-out: efficacy
Description: as §1, with “barley” for “gherkin or cabbage”, “Pyrenophora teres” for “Botrytis cinerea”

[4] = system: Sphaerotheca fuliginea; test: In vivo preventive test on Sphaerotheca fuliginea (powdery mildew on cucurbits); details: Podosphaera fuliginea, 192 h; 500 ppm of active ingredient; preventive spray on gherkin; evaluated 8 days after inoculation; read-out: efficacy
Description: as §1, with “gherkin” for “gherkin or cabbage”, “Sphaerotheca fuliginea” for “Botrytis cinerea”

[5] = system: Colletotrichum lindemuthianum; test: In vivo preventive test on Colletotrichum lindemuthianum (leaf spot on bean); details: 168 h, 500 ppm of active ingredient, preventive spray on bean, evaluated 7 days after inoculation, read-out: efficacy
Description: as §1, with “bean” for “gherkin or cabbage”, “Colletotrichum lindemuthianum” for “Botrytis cinerea”

[6] = system: Alternaria alternata; test: Alternaria alternata in vitro cell test; type: cell-based; details: 120 h, 20 ppm of active ingredient, liquid culture, 5 days incubation, read-out: efficacy (inhibition of fungal growth)
Description: • Solvent: DMSO • Culture medium: 14.6 g anhydrous D-glucose (VWR), 7.1 g Mycological Peptone (Oxoid), 1.4 g granulated Yeast Extract (Merck), QSP 1 liter • Inoculum: spores suspension Fungicides were solubilized in DMSO and the solution used to prepare the required range of concentrations. […] A spore suspension of A. alternata was prepared and diluted to the desired spore density. Fungicides were evaluated for their ability to inhibit spore germination and mycelium growth in liquid culture assay. The compounds were added in the desired concentration to the culture medium with spores. After 5 days incubation, fungi-toxicity of compounds was determined by spectrometric measurement of mycelium growth. Inhibition of fungal growth was determined by comparing the absorbance values in wells containing the fungicides with the absorbance in control wells without fungicides.

[7] = system: Pyricularia Oryzae; test: microbe, parasite or virus in culture; type: cell-based; details: 120 h, read-out: efficacy (inhibition of fungal growth)
[8] = system: Alternaria brassicae; test: In vivo preventive test on Alternaria brassicae (leaf spot on radish or cabbage); details: 144 h, 500 ppm of active ingredient, preventive spray on radish or cabbage, evaluated 6 days after inoculation, read-out: efficacy
Description: as §1, with “radish” for “gherkin”, “Alternaria brassicae” for “Botrytis cinerea”

[9] = 0.1% formic acid, intermediates of formula (4), Table 9
[10] = 0.1% formic acid in water and acetonitrile, compounds of formula (I-1), Table 1

## Cc1ccc(CC(CON2C(=O)c3ccccc3C2=O)NC(=O)c2cc(C)nnc2Oc2cccc(Cl)c2)c(C)c1 (racemic) [Compound 3-01, 3-(3-chlorophenoxy)-N-{(2RS)-1-(2,4-dimethylphenyl)-3-[(1,3-dioxo-1,3-dihydro-2H-isoindol-2-yl)oxy]propan-2-yl}-6-methylpyridazine-4-carboxamide]
[1]; 0.1% formic acid, intermediates of formula (3), Table 7
  chromatographic logP: 4.47

## Cc1ccc(CC(CON)NC(=O)c2cc(C)nnc2Oc2cccc(Cl)c2)c(C)c1 (racemic) [Compound 4-01, N-[(2RS)-1-(aminooxy)-3-(2,4-dimethylphenyl)propan-2-yl]-3-(3-chlorophenoxy)-6-methylpyridazine-4-carboxamide]
[1]; [9]
  chromatographic logP: 2.64

## NOCC(Cc1ccc(Cl)cc1Cl)NC(=O)c1cc(Cl)nnc1Oc1cccc(C2CC2)c1F (racemic) [Compound 4-02, 6-chloro-3-(3-cyclopropyl-2-fluoro-phenoxy)-N-[(1RS)-1-(aminooxymethyl)-2-(2,4-dichlorophenyl)ethyl]pyridazine-4-carboxamide]
[1]; [9]
  chromatographic logP: 3.7

## Cc1ccc(CC(CCl)NC(=O)c2cc(C)nnc2Oc2cccc(Cl)c2)c(Cl)c1 (racemic) [Compound 14-03, N-[(2RS)-1-chloro-3-(2-chloro-4-methylphenyl)propan-2-yl]-3-(3-chlorophenoxy)-6-methylpyridazine-4-carboxamide]
[1]; 0.1% formic acid, intermediates of formula (14), Table 17
  chromatographic logP: 4.43

## Cc1ccc(CC(CCl)NC(=NO)c2cc(C)nnc2Oc2cccc(Cl)c2)c(Cl)c1 (racemic) [Compound 15-03]
[1]; 0.1% formic acid, intermediates of formula (15), Table 15
  chromatographic logP: 3.78

## Cc1ccc(CC2CON=C(c3cc(Cl)nnc3Oc3cccc(Cl)c3)N2)c(Cl)c1 (racemic) [Compound I-017, (5RS)-3-[6-chloro-3-(3-chlorophenoxy)pyridazin-4-yl]-5-(2-chloro-4-methylbenzyl)-5,6-dihydro-4H-1,2,4-oxadiazine]
[1]; [10]
  chromatographic logP: 4.44

## Cc1cc(C2=NOCC(Cc3ccc(Cl)cc3Cl)N2)c(Oc2cccc(C3(Cl)CC3)c2)nn1 (racemic) [Compound I-022, (5RS)-3-{3-[3-(1-chlorocyclopropyl)phenoxy]-6-methylpyridazin-4-yl}-5-(2,4-dichlorobenzyl)-5,6-dihydro-4H-1,2,4-oxadiazine]
[1]; [10]
  chromatographic logP: 4.51
[2]
  pest or weed control at 500 ppm: 90 to 100%
[3]
  pest or weed control at 500 ppm: 90 to 100%
[4]
  pest or weed control at 500 ppm: 90 to 100%
[5]
  pest or weed control at 500 ppm: 90 to 100%
[6]
  inhibition at 20 ppm: 90 to 100%
[7]
  inhibition at 20 ppm: 70 to 79%
[8]
  pest or weed control at 500 ppm: 90 to 100%

## Clc1ccc(CC2CON=C(c3cc(Cl)nnc3Oc3cccc(C4(Cl)CC4)c3)N2)c(Cl)c1 (racemic) [Compound I-024, (5RS)-3-{6-chloro-3-[3-(1-chlorocyclopropyl)phenoxy]pyridazin-4-yl}-5-(2,4-dichlorobenzyl)-5,6-dihydro-4H-1,2,4-oxadiazine]
[1]; [10]
  chromatographic logP: 4.93

## Cc1cc(C(=O)O)c(Oc2cccc(Cl)c2)nn1 [Compound 1-01]
[1]
  LogP: 1.26^[a]

## Cc1cc(C(=O)O)c(Oc2cccc(C)c2F)nn1 [Compound 1-02]
[1]
  LogP: 1.32^[a]

## Cc1cc(C(=O)O)c(Oc2cccc(C3(F)CC3)c2)nn1 [Compound 1-05]
[1]
  LogP: 0.68^[a]

## Cc1cc(C(=O)OC(C)C)c(Oc2cccc(C3(F)CC3)c2)nn1 [Compound 1-06]
[1]
  LogP: 4.73^[a]

## Cc1ccc(CC(N)CON2C(=O)c3ccccc3C2=O)c(C)c1.O=C(O)C(F)(F)F (centres unmarked) [Compound 2-01]
[1]
  LogP: 1.55[a]

## O=C(NC(CON1C(=O)c2ccccc2C1=O)Cc1ccc(Cl)cc1Cl)c1cc(Cl)nnc1Oc1cccc(C2CC2)c1F (centres unmarked) [Compound 3-02]
[1]
  LogP: 5.27^[a]

## Cc1cc(C)cc(CC(N)CCl)c1.Cl (centres unmarked) [Compound 13-02]
[1]
  LogP: 1.32[a]

## Cc1ccc(C)c(CC(N)CCl)c1.Cl (centres unmarked) [Compound 13-03]
[1]
  LogP: 1.13[a]

## Cc1ccc(CC(N)CCl)c(C)c1.Cl (centres unmarked) [Compound 13-04]
[1]
  LogP: 1.24[a]

## Cc1ccc(CC(CCl)NC(=O)c2cc(C)nnc2Oc2cccc(Cl)c2)c(Br)c1 (centres unmarked) [Compound 14-01]
[1]
  LogP: 4.51^[a]

## Cc1ccc(CC(CCl)NC(=O)c2cc(C)nnc2Oc2cccc(C)c2F)c(Cl)c1 (centres unmarked) [Compound 14-02]
[1]
  LogP: 4.43^[a]

## Cc1cc(C)cc(CC(CCl)NC(=O)c2cc(C)nnc2Oc2cccc(C)c2F)c1 (centres unmarked) [Compound 14-04]
[1]
  LogP: 4.47^[a]

## Cc1cc(C)cc(CC(CCl)NC(=O)c2cc(C)nnc2Oc2cccc(Cl)c2)c1 (centres unmarked) [Compound 14-05]
[1]
  LogP: 4.51^[a]

## Cc1cc(C)cc(CC(CCl)NC(=O)c2cc(C)nnc2Oc2cccc(Cl)c2F)c1 (centres unmarked) [Compound 14-06]
[1]
  LogP: 4.59^[a]

## Cc1ccc(C)c(CC(CCl)NC(=O)c2cc(C)nnc2Oc2cccc(Cl)c2F)c1 (centres unmarked) [Compound 14-07]
[1]
  LogP: 4.42^[a]

## Cc1ccc(C)c(CC(CCl)NC(=O)c2cc(C)nnc2Oc2cccc(C)c2F)c1 (centres unmarked) [Compound 14-08]
[1]
  LogP: 4.37^[a]

## Cc1ccc(C)c(CC(CCl)NC(=O)c2cc(C)nnc2Oc2cccc(Cl)c2)c1 (centres unmarked) [Compound 14-09]
[1]
  LogP: 4.37^[a]

## Cc1ccc(CC(CCl)NC(=O)c2cc(C)nnc2Oc2cccc(C3(F)CC3)c2)c(C)c1 (centres unmarked) [Compound 14-10]
[1]
  LogP: 4.58^[a]

## Cc1ccc(CC(CCl)NC(=O)c2cc(Cl)nnc2Oc2cccc(Cl)c2)c(Cl)c1 (centres unmarked) [Compound 14-12]
[1]
  LogP: 4.97^[a]

## Cc1ccc(CC(CCl)NC(=NO)c2cc(C)nnc2Oc2cccc(Cl)c2)c(Br)c1 (centres unmarked) [Compound 15-01]
[1]
  LogP: 3.84^[a]

## Cc1ccc(CC(CCl)NC(=NO)c2cc(C)nnc2Oc2cccc(C)c2F)c(Cl)c1 (centres unmarked) [Compound 15-02]
[1]
  LogP: 3.75^[a]

## Cc1cc(C)cc(CC(CCl)NC(=NO)c2cc(C)nnc2Oc2cccc(Cl)c2F)c1 (centres unmarked) [Compound 15-04]
[1]
  LogP: 3.98^[a]

## Cc1ccc(C)c(CC(CCl)NC(=NO)c2cc(C)nnc2Oc2cccc(Cl)c2F)c1 (centres unmarked) [Compound 15-05]
[1]
  LogP: 3.84^[a]

## Cc1ccc(C)c(CC(CCl)NC(=NO)c2cc(C)nnc2Oc2cccc(C)c2F)c1 (centres unmarked) [Compound 15-06]
[1]
  LogP: 3.74^[a]

## Cc1ccc(C)c(CC(CCl)NC(=NO)c2cc(C)nnc2Oc2cccc(Cl)c2)c1 (centres unmarked) [Compound 15-07]
[1]
  LogP: 3.74^[a]

## Cc1ccc(C[C@H]2CON=C(c3cc(C(Cl)Cl)nnc3Oc3cccc(C4CC4)c3F)N2)c(C)c1 [Compound I-021, (5S)-3-[3-(3-cyclopropyl-2-fluorophenoxy)-6-(dichloromethyl)pyridazin-4-yl]-5-(2,4-dimethylbenzyl)-5,6-dihydro-4H-1,2,4-oxadiazine]
[1]; [10]
  chromatographic logP: 5.11
